From patent publication US9346746B2, “R(+)-N-formyl-propargyl-aminoindan” (Teva Pharmaceutical Industries, Ltd., priority 2011, dated 2016)
Where two headings read alike, the source gives them in different places.

How the values were obtained:
[1] = RH=100%, room temperature, 7 days
[2] = for R(+)-N-formyl-PAI, % of Rasagiline: 90° C., air, 1 mg/ml
Experimental: An additional series of degradation experiments was performed at 90° C. in order to achieve even higher degradation of Rasagiline in aqueous solutions.
For this series the treatment time was 1 and 2 weeks, and phosphate-citrate buffer (pH=2.6) and phosphate buffer (pH=8.0) were used.
The solutions were exposed to heat in an oven under an air atmosphere in amber glass vials closed with Teflon stoppers and covered with aluminum foil for protection from light.
The samples were introduced into an oven pre-heated to 90° C. and held at this temperature for 7 or 14 days. After completion of the treatment the samples were refrigerated at 2-8° C. and analyzed.

[3] = 1 mg/ml, air, Ethanol, 78 °C, 168 hrs
Experimental: The solutions were exposed to heating in oven under air atmosphere in amber glass vials closed with Teflon stoppers and covered with aluminum foil for protection from light. After completion of the treatment the samples were refrigerated at 2-8° C. and analyzed later using HPLC.

[4] = room temperature, initial peroxide 3%
Experimental: Then peroxide and water were added; complete dissolution of solid was achieved by shaking.
After holding at room temperature for 10 minutes to 20 hrs (oxidation time), the solutions were diluted with mobile phase and analyzed by HPLC.

[5] = in vivo; cited from earlier work
[6] = melt phase, Air
Experimental: Samples intended to degrade under an inert atmosphere were flushed with nitrogen for 5 minutes before closing with a stopper.
The samples were introduced into a pre-heated oven and held at a constant temperature of 78 and 90° C. for 24, 72 or 137 hrs. After completion of the treatment the samples were refrigerated and analyzed.

## C#CCN[C@@H]1CCc2ccccc21 [Rasagiline base, R(+)-N-propargyl-1-aminoindan]
[1]
  R(+)-N-formyl-PAI after humidity stress: not detected
[2]; Acetate buffer pH = 4.1, 1 week
  R(+)-N-formyl-PAI, % of Rasagiline: 0.05 % of Rasagiline
[2]; Phosphate buffer pH = 6.0, 1 week
  R(+)-N-formyl-PAI, % of Rasagiline: 0.07 % of Rasagiline
[2]; Phosphate buffer pH = 6.0, 2 weeks
  R(+)-N-formyl-PAI, % of Rasagiline: 0.16 % of Rasagiline
[2]; Phosphate buffer pH = 8.0, 1 week
  R(+)-N-formyl-PAI, % of Rasagiline: 0.22 % of Rasagiline
[2]; Phosphate buffer pH = 8.0, 2 weeks
  R(+)-N-formyl-PAI, % of Rasagiline: 0.19 % of Rasagiline
[2]; Phosphate-citrate buffer 3.6, 1 week
  R(+)-N-formyl-PAI, % of Rasagiline: 0.13 % of Rasagiline
[2]; Phosphate-citrate buffer 3.6, 2 weeks
  R(+)-N-formyl-PAI, % of Rasagiline: 0.11 % of Rasagiline
[2]; Phosphate-citrate buffer pH = 2.6, 1 week
  R(+)-N-formyl-PAI, % of Rasagiline: 0.17 % of Rasagiline
[2]; Phosphate-citrate buffer pH = 2.6, 2 weeks
  R(+)-N-formyl-PAI, % of Rasagiline: 0.26 % of Rasagiline
[2]; aqueous solutions at 90° C., summary statement
  R(+)-N-formyl-PAI found in the solutions: above 0.1 % area of Rasagiline
[3]
  R(+)-N-formyl-PAI, % of Rasagiline: <0.04 % of Rasagiline
[4]; oxidation time 5:00 hr:min
  R(+)-N-formyl-PAI, % of Rasagiline: 0.17 % of Rasagiline
[4]; oxidation time 20:00 hr:min
  R(+)-N-formyl-PAI, % of Rasagiline: 0.23 % of Rasagiline
[5]
  absolute bioavailability: about 36%
[6]; 78 deg. C., 24 hrs
  R(+)-N-formyl-PAI, % of Rasagiline: 0.14 % of Rasagiline
[6]; 78 deg. C., 72 hrs
  R(+)-N-formyl-PAI, % of Rasagiline: 0.10 % of Rasagiline
[6]; 90 deg. C., 24 hrs
  R(+)-N-formyl-PAI, % of Rasagiline: 0.08 % of Rasagiline
[6]; 90 deg. C., 72 hrs
  R(+)-N-formyl-PAI, % of Rasagiline: 0.07 % of Rasagiline
[6]; 90 deg. C., 137 hrs
  R(+)-N-formyl-PAI, % of Rasagiline: 0.07 % of Rasagiline
